This is an account of results in ChEMBL document CHEMBL4840375, “Ring A/B-Modified 17β-Hydroxywithanolide Analogues as Antiproliferative Agents for Prostate Cancer and Potentiators of Immunotherapy for Renal Carcinoma and Melanoma” (J Nat Prod, 2021).

A word on the IC50: it is the midpoint of a concentration-inhibition curve.

One assay deals with LNCaP. The assay can be described thus: Antiproliferative activity against human LNCaP cells assessed as inhibition of cell proliferation incubated for 72 hrs by MTT assay. Format: functional, cell-based.
Another assay relates to CWR22R. Briefly: Antiproliferative activity against human 22Rv1 cells assessed as inhibition of cell proliferation incubated for 72 hrs by MTT assay. As to conditions: 22Rv1, 72 h. Format: functional, cell-based.
Assay [1] deals with ACHN. Briefly: Antiproliferative activity against human ACHN cells assessed as inhibition of cell proliferation incubated for 72 hrs by MTT assay. Format: functional, cell-based. On the technique in general: Formazan colour is commonly taken as a measure of viable cells.
The test system of assay [2] is M14. Briefly: Antiproliferative activity against human M14 cells assessed as inhibition of cell proliferation incubated for 72 hrs by MTT assay. The format is functional, cell-based. The following applies: M14, 72 h.
Assay [3] has as its system SK-MEL-28. The assay can be described thus: Antiproliferative activity against human SK-MEL-28 cells assessed as inhibition of cell proliferation incubated for 72 hrs by MTT assay. The format is functional, cell-based. As to conditions: SK-MEL-28, 72 h.
The subject of another assay is HFF. Briefly: Cytotoxicity against human HFF cells assessed as reduction in cell viability incubated for 72 hrs by MTT assay. The format is cell-based.
Assay [4] deals with M14. Briefly: Antiproliferative activity against human M14 cells assessed as inhibition of cell proliferation incubated for 48 hrs by MTT assay. The format is functional, cell-based. The following applies: M14, 48 h.
For assay [5], the system named is SK-MEL-28. Briefly: Antiproliferative activity against human SK-MEL-28 cells assessed as inhibition of cell proliferation incubated for 48 hrs by MTT assay. The format is functional, cell-based. As to conditions: SK-MEL-28, 48 h.
In assay [6] the test system is M14. The assay can be described thus: Potentiation of poly I:C-induced antiproliferative activity against human M14 cells assessed as reduction in cell numbers by measuring IC50 pretreated with compound for 2 hrs followed by poly I:C addition and measured after 48 hrs by MTT assay. The format is functional, cell-based.
Assay [7] concerns SK-MEL-28. The assay can be described thus: Potentiation of poly I:C-induced antiproliferative activity against human SK-MEL-28 cells assessed as reduction in cell numbers by measuring IC50 pretreated with compound for 2 hrs followed by poly I:C addition and measured after 48 hrs by MTT assay. Format: functional, cell-based.
Assay [8] deals with ACHN. The assay can be described thus: Antiproliferative activity against human ACHN cells assessed as inhibition of cell proliferation incubated for 24 hrs by MTT assay. Format: functional, cell-based.
In assay [9] the test system is ACHN. The assay can be described thus: Potentiation of TRAIL-induced antiproliferative activity against human ACHN cells assessed as reduction in cell numbers by measuring IC50 pretreated with compound for 2 hrs followed by TRAIL addition and measured after 24 hrs by MTT assay. Format: functional, cell-based.

On to `CC(=O)OC[C@]12CC[C@H]3[C@@H](CC(=O)C4=CC=CC(=O)[C@@]43C)[C@]1(O)CC[C@@]2(O)[C@@](C)(O)C1CC(C)=C(C)C(=O)O1` (stereo not given in full), for which the IC50 in the assay on LNCaP was over 5 µM; with CWR22R it was 0.5 µM; with ACHN [1] it was over 5 µM; in the assay on M14 [2] it was 2.34 µM; in the assay with SK-MEL-28 [3], over 5 µM; in the assay with HFF, over 5 µM. The IC50 in the assay with M14 [4], in the assay with SK-MEL-28 [5], with M14 [6] and in the assay with SK-MEL-28 [7] was over 5 µM throughout.
With `CC(=O)OC[C@]12CC[C@H]3[C@@H](CC=C4CCCC(=O)[C@@]43C)[C@@]1(O)CC[C@@]2(O)[C@@](C)(O)C1CC(C)=C(C)C(=O)O1` (stereo not given in full), the IC50 with LNCaP, in the assay on CWR22R, in the assay with ACHN [1], with M14 [2], in the assay with SK-MEL-28 [3] and in the assay on HFF was over 5 µM throughout.
For `CC(=O)OC[C@]12CC[C@H]3[C@@H](CC=C4[C@@H](OC(C)=O)C=CC(=O)[C@@]43C)[C@]1(O)CC[C@@]2(O)[C@@](C)(O)C1CC(C)=C(C)C(=O)O1` (stereo not given in full), the IC50 in the assay with LNCaP worked out at 0.68 µM; with CWR22R, 0.13 µM; in the assay with M14 [2], 1.43 µM; in the assay on HFF, 2.69 µM.
As to `CC(=O)OC[C@]12CC[C@H]3[C@@H](C[C@@H](O)C4=CC=CC(=O)[C@@]43C)[C@]1(O)CC[C@@]2(O)[C@@](C)(O)C1CC(C)=C(C)C(=O)O1` (stereo not given in full), the IC50 in the assay on LNCaP was 2.96 µM; in the assay with CWR22R, 1.89 µM; in the assay with ACHN [1] it was over 5 µM; in the assay with M14 [2], over 5 µM; in the assay on SK-MEL-28 [3], over 5 µM; with HFF it was over 5 µM.
In the case of `CC(=O)OC[C@]12CC[C@H]3[C@@H](C[C@H](O)C4=CC=CC(=O)[C@@]43C)[C@]1(O)CC[C@@]2(O)[C@@](C)(O)C1CC(C)=C(C)C(=O)O1` (stereo not given in full), the IC50 with LNCaP, with CWR22R, in the assay with ACHN [1], in the assay with M14 [2], in the assay with SK-MEL-28 [3] and in the assay with HFF was over 5 µM throughout.
On to `CC(=O)OC[C@]12CC[C@H]3[C@@H](C[C@H]4O[C@]45[C@@H](O)C=CC(=O)[C@]35C)[C@]1(O)CC[C@@]2(O)[C@@](C)(O)C1CC(C)=C(C)C(=O)O1` (stereo not given in full), for which the IC50 with LNCaP was 3.52 µM; in the assay with CWR22R it was 1.53 µM; with ACHN [1], over 5 µM; with M14 [2], over 5 µM; in the assay with SK-MEL-28 [3], over 5 µM; in the assay with HFF it was over 5 µM. For the same compound, the IC50 with M14 [4] is over 5 µM; in the assay with SK-MEL-28 [5] it was over 5 µM; in the assay with M14 [6] it was over 5 µM; in the assay with SK-MEL-28 [7] it was 4.61 µM.
On to `CC(=O)OC[C@]12CC[C@H]3[C@@H](CC=C4CC=CC(=O)[C@@]43C)[C@]1(O)CC[C@@]2(O)[C@@](C)(O)C1CC(C)=C(C)C(=O)O1` (stereo not given in full), for which the IC50 with CWR22R is 0.13 µM; with ACHN [1], 3.09 µM; in the assay with M14 [2], over 5 µM; in the assay on SK-MEL-28 [3] it was over 5 µM; in the assay with HFF, over 5 µM; in the assay with ACHN [8], over 5 µM. Besides, the half-maximal inhibitory concentration (IC50) in the assay with ACHN [9] is 0.56 µM; with M14 [4] it was over 5 µM; in the assay with SK-MEL-28 [5], over 5 µM; with M14 [6], 2.81 µM; with SK-MEL-28 [7], 1.77 µM.
`CC(=O)OC[C@]12CC[C@H]3[C@@H](C[C@H]4O[C@]45C(=O)C=CC(=O)[C@]35C)[C@]1(O)CC[C@@]2(O)[C@@](C)(O)C1CC(C)=C(C)C(=O)O1` (stereo not given in full): the IC50 in the assay with LNCaP, in the assay with CWR22R, in the assay on ACHN [1], in the assay with M14 [2], with SK-MEL-28 [3] and in the assay on HFF was over 5 µM throughout.
As for `CC(=O)OC[C@]12CC[C@H]3[C@@H](CC=C4C=CCC(=O)[C@@]43C)[C@]1(O)CC[C@@]2(O)[C@@](C)(O)C1CC(C)=C(C)C(=O)O1` (stereo not given in full), the IC50 is 0.97 µM with CWR22R; over 5 µM in the assay on ACHN [1]; over 5 µM in the assay with M14 [2]; over 5 µM with SK-MEL-28 [3]; over 5 µM with HFF; over 5 µM in the assay with M14 [4]. The figures for the IC50 in the assay on SK-MEL-28 [5], with M14 [6] and in the assay with SK-MEL-28 [7] were over 5 µM, over 5 µM and 4.49 µM, respectively.
In the case of `CC(=O)OC[C@]12CC[C@H]3[C@@H](C[C@H](OC(C)=O)[C@]45O[C@H]4C=CC(=O)[C@]35C)[C@]1(O)CC[C@@]2(O)[C@@](C)(O)C1CC(C)=C(C)C(=O)O1` (stereo not given in full), the IC50 in the assay with LNCaP was over 5 µM; in the assay on CWR22R it was 3.08 µM; in the assay with ACHN [1], over 5 µM; in the assay on M14 [2], over 5 µM; in the assay on SK-MEL-28 [3] it was over 5 µM; with HFF, over 5 µM.
For the compound `CC(=O)OC[C@]12CC[C@H]3[C@@H](CC=C4[C@@H](O)C=CC(=O)[C@@]43C)[C@]1(O)CC[C@@]2(O)[C@@](C)(O)C1CC(C)=C(C)C(=O)O1` (stereo not given in full), the IC50 is 0.35 µM with LNCaP, 0.08 µM in the assay with CWR22R, 0.45 µM in the assay on M14 [2] and over 5 µM in the assay with HFF.
With `CC(=O)OC[C@]12CC[C@H]3[C@@H](C[C@@H]4O[C@@]45CC=CC(=O)[C@]35C)[C@]1(O)CC[C@@]2(O)[C@@](C)(O)C1CC(C)=C(C)C(=O)O1` (stereo not given in full), the IC50 in the assay on CWR22R was 0.58 µM; in the assay with ACHN [1], over 5 µM; in the assay with M14 [2] it was over 5 µM; in the assay on SK-MEL-28 [3], over 5 µM; in the assay on HFF it was over 5 µM; in the assay on M14 [4], over 5 µM. Moreover, the half-maximal inhibitory concentration (IC50) in the assay on SK-MEL-28 [5] is over 5 µM; in the assay on M14 [6], over 5 µM; in the assay with SK-MEL-28 [7], 4.56 µM.
As for `CC(=O)OC[C@]12CC[C@H]3[C@@H](C[C@@H](O)[C@]45O[C@H]4C=CC(=O)[C@]35C)[C@]1(O)CC[C@@]2(O)[C@@](C)(O)C1CC(C)=C(C)C(=O)O1` (stereo not given in full), the IC50 with LNCaP, with CWR22R, with ACHN [1], in the assay on M14 [2], with SK-MEL-28 [3] and with HFF was over 5 µM each time.
`CC(=O)OC[C@]12CC[C@H]3[C@@H](C[C@@H](OC(C)=O)[C@]45O[C@H]4C=CC(=O)[C@]35C)[C@]1(O)CC[C@@]2(O)[C@@](C)(O)C1CC(C)=C(C)C(=O)O1` (stereo not given in full): the half-inhibitory concentration (IC50) with LNCaP is over 5 µM; in the assay on CWR22R, 1.37 µM; in the assay with ACHN [1], over 5 µM; in the assay on M14 [2], over 5 µM; in the assay on SK-MEL-28 [3], over 5 µM; with HFF, over 5 µM.
`CC(=O)OC[C@]12CC[C@H]3[C@@H](C[C@H](OC(C)=O)C4=CC=CC(=O)[C@@]43C)[C@]1(O)CC[C@@]2(O)[C@@](C)(O)C1CC(C)=C(C)C(=O)O1` (stereo not given in full): the IC50 is 2 µM with LNCaP; 1.14 µM in the assay with CWR22R; over 5 µM with ACHN [1]; over 5 µM in the assay on M14 [2]; over 5 µM with SK-MEL-28 [3]; over 5 µM in the assay with HFF.
On to `CC(=O)OC[C@]12CC[C@H]3[C@@H](C[C@@H](OC(C)=O)C4=CC=CC(=O)[C@@]43C)[C@]1(O)CC[C@@]2(O)[C@@](C)(O)C1CC(C)=C(C)C(=O)O1` (stereo not given in full), for which the IC50 in the assay on LNCaP was 1 µM; in the assay on CWR22R, 0.63 µM; in the assay on ACHN [1], over 5 µM; with M14 [2], over 5 µM; with SK-MEL-28 [3], over 5 µM; in the assay with HFF it was over 5 µM.
`CC(=O)OC[C@]12CC[C@H]3[C@@H](CC(=O)[C@]45O[C@H]4C=CC(=O)[C@]35C)[C@]1(O)CC[C@@]2(O)[C@@](C)(O)C1CC(C)=C(C)C(=O)O1` (stereo not given in full): the IC50 in the assay on LNCaP, in the assay on CWR22R, in the assay on ACHN [1], in the assay with M14 [2], with SK-MEL-28 [3] and with HFF was over 5 µM in each case.
With `CC(=O)OC[C@]12CC[C@H]3[C@@H](C[C@H](O)[C@]45O[C@H]4C=CC(=O)[C@]35C)[C@]1(O)CC[C@@]2(O)[C@@](C)(O)C1CC(C)=C(C)C(=O)O1` (stereo not given in full), the IC50 in the assay on LNCaP is 0.53 µM; in the assay on CWR22R, 0.25 µM; in the assay with ACHN [1], over 5 µM; with M14 [2], over 5 µM; with SK-MEL-28 [3] it was over 5 µM; in the assay on HFF it was over 5 µM.
On to `CC(=O)OC[C@]12CC[C@H]3[C@@H](C[C@H]4O[C@]45CCCC(=O)[C@]35C)[C@]1(O)CC[C@@]2(O)[C@@](C)(O)C1CC(C)=C(C)C(=O)O1` (stereo not given in full), for which the IC50 in the assay with LNCaP was over 5 µM; in the assay on CWR22R, 2.56 µM; in the assay on ACHN [1] it was over 5 µM; with M14 [2], over 5 µM; in the assay on SK-MEL-28 [3], over 5 µM; in the assay on HFF it was over 5 µM.
For `COc1cccc2c1C(=O)c1c(O)c3c(c(O)c1C2=O)C[C@@](O)(C(=O)CO)C[C@@H]3O[C@H]1C[C@H](N)[C@H](O)[C@H](C)O1` [DOXORUBICIN], in the assay on HFF, the IC50 stood at 0.15 µM.
